The target in one data set is eukaryotic ribosome. Briefly: Eukaryotic in vitro translation inhibition (TNT T7 Quick Coupled Transcription/Translation System, luciferase). The format is biochemical. Particulars: for IC50: eukaryotic in vitro translation, 30 °C, 60 minutes. As to the method: The Set1 and Set2 compounds as described in Example 1 hereinabove were further tested for their ability to inhibit eukaryotic translation, as follows.
Eukaryotic in vitro translation inhibition was quantified using a TNT® T7 Quick Coupled
Transcription/Translation System with a luciferase T7 control DNA plasmid (Promega), according to the manufacturer protocol. Translation reactions (25 μL) containing variable concentrations of the tested aminoglycoside were incubated at 30° C. for 60 minutes, cooled on ice for 5 minutes, diluted with the dilution reagent and transferred into 96-well plates. In both prokaryotic and eukaryotic systems the luminescence was measured immediately after the addition of the Luciferase Assay Reagent ([…]; Promega), and the light emission was recorded with a FLx800 Fluorescence Microplate Reader (Biotek). The half-maximal inhibition concentration (IC50) values were obtained from fitting concentration-response curves to the data of at least two independent experiments by using Grafit 5 software.

Data set [1] in a line: Toxicity assay in cochlear explants (organ of Corti). The format is cell-based. The note with it: CBA/J, mouse, cochlear explants (organ of Corti), outer hair cells, concentration at 50% loss of hair cells; 72 hours incubation; read-out: Ototoxicity (Loss of outer hair cells), LC50^Coch. As for the experimental part: (§1) The ototoxicity potential of Set1 and Set2 compounds was tested with cochlear explants as described, for example, in E. Shulman et al., J. Biol. Chem. 289(4), 2318-2330 (2014). The ototoxicity was measured as the value of AG concentration that is needed for 50% of hair loss from the outer hair cells of the cochlea, as follows.
(§2) The tested compounds were screened for toxicity to auditory hair cells in explants of the organ of Corti from CBA/J mice of postnatal day 2-3. The dissected tissue was placed on a collagen-coated incubation dish as a flat surface preparation in 1 ml of serum-free Basal Medium Eagle (Sigma Aldrich, St. Louis, Mo.) plus serum-free supplement (Invitrogen, Eugene, Oreg.), 1% bovine serum albumin, 2 mM glutamine, 5 mg glucose /ml and 10 units penicillin/ml. The explants were incubated for 5 hours (37° C., 5% CO2) and an additional 1 ml of culture medium was added to submerse the explants. After 48 hours of continued pre-incubation the culture medium was exchanged for new medium containing a specified concentration of the tested compound. Following another 72 hours of incubation, the explants were washed three times with PBS, fixed overnight in 4% (v/v) paraformaldehyde at 4° C., and then permeabilized for 30 minutes with 0.3% (v/v) Triton X-100 in PBS. The specimens were washed three times with PBS for 10 minutes at room temperature and incubated with rhodamine phalloidin (1:100; Life Technologies, Eugene, OR), either for 1 hour at room temperature or overnight at 4° C.
(§3) Following several rinses with PBS, the explants were mounted on microscope slides with Fluoro-Gel (Electron Microscopy Sciences, Hatfield, Pa.) and imaged on a Leica SP5 Confocal TCS Microscope (Leica, Wetzlar, Germany). Hair cells were identified by phalloidin-staining of their stereociliary bundles and circumferential F-actin rings. Their presence or absence was quantified using a 50x oil immersion objective on an epifluorescence Leitz Orthoplan microscope (Leica, Wetzlar, Germany), equipped with a calibrated scale (0.19 mm) superimposed on the field of view. All rows of hair cells were oriented longitudinally within each frame and counted from the apex of the cochlea to its base. Cell counts were entered in a computer program and compared to a normative database (KHRI Cytocochleogram, version 3.0.6, Kresge Hearing Research Institute, University of Michigan, Ann Arbor, Mich., USA) and are reported as percent hair cell loss averaged over the entire length of the explant.

The next data set relates to outer hair cells. Described as above. The class given is cell-based. Particulars: for morphology of hair cell epithelium: F-actin staining; for ototoxicity potential, in words: LC50^Coch in the millimolar range. As for the experimental part: as §1, §2, §3
Data set [2] concerns G542X nonsense mutation (CFTR, premature UGA G stop codon). Briefly: In vitro readthrough, dual luciferase reporter assay, G542X construct. The format is biochemical. The note with it: cystic fibrosis, in words, versus parent compound. As for the experimental part: (§4) The Set1 and Set2 compounds as described in Example 1 hereinabove were tested for their readthrough activity in vitro by using a dual luciferase reporter assay system, as follows.
(§5) DNA fragments derived from PCDH15, CFTR, and IDUA cDNAs, including the tested nonsense mutation or the corresponding WT codon, and four to six upstream and downstream flanking codons, were created by annealing the following pairs of complementary oligonucleotides:
(§6) Fragments were inserted in frame into the polylinker of the p2Luc plasmid between either BamHI and Sad (p.R3X and p.R245X) or Salland Sad (all the rest) restriction sites. For the in vitro readthrough assays, the obtained plasmids, with addition of the tested aminoglycosides were transcribed and translated using the TNT Reticulocyte Lysate Quick Coupled Transcription/Translation System. Luciferase activity was determined after 90 minutes of incubation at 30° C., using the Dual Luciferase Reporter Assay System (Promega™). Stop codon readthrough was calculated as described in Grentzmann et al. RNA 4, 479-486 (1998).
(§7) Reporters carrying R3X nonsense mutation (a premature UGA C stop codon) related to Usher syndrome and G542X (a premature UGA G stop codon) related to Cystic fibrosis were used, and the obtained data is presented in FIGS. 7A-D.
For orientation: A reporter such as luciferase makes a cellular process visible.

Data set [3] has as its system R3X nonsense mutation (PCDH15, premature UGA C stop codon). The experiment in a line: In vitro readthrough, dual luciferase reporter assay, R3X construct. The class given is biochemical. As for the experimental part: as §4, §5, §6, §7
For data set [4], the system named is CFTR S466X nonsense mutation. The experiment in a line: Readthrough activity in cell-free dual luciferase assay, CFTR S466X. The format is biochemical, rabbit. An excerpt:
(§8) A dual luciferase plasmid carrying the Cystic fibrosis transmembrane conductance regulator (CFTR) mutation, S466X, or wild-type sequence, between Renilla and Firefly luciferase was transcribed and translated in vitro using rabbit reticulocytes (TNT mix) and then tested for functional activity of firefly and renilla luciferases. WT plasmids expressed both firefly and renilla luciferases while mutant plasmids expressed only the renilla luciferase due to the stop codon found in the inserted sequence. The readthrough assays were conducted for the tested compounds and controls by adding the compounds to the in vitro transcription/translation reaction mixture.
Read-through activity induced by NB74-MeS and NB124-MeS was calculated from the dual luciferase assay data using results from both the WT and mutant plasmids and the following equation: […]
(iii) Readthrough efficiency is presented as fold-increase in Firefly luciferase activity between NB74-MeS and NB124-MeS treated and non-treated mutant plasmid.
(iv) % readthrough of WT is calculated as the percentage of FF/Renilla of the mutant plasmid divided by the FF/Renilla of the WT plasmid.

The test system of the next data set is ribosomes. The experiment in a line: Translational inhibition (TI) in cell-free dual luciferase assay, Renilla of WT plasmid. The class given is biochemical, rabbit.
Source text: as §8
(i) Translational Inhibition (TI; The extent of the translational inhibition of ribosomes by NB74-MeS and NB124-MeS was calculated using the reduction in the Renilla bioluminescence values of WT plasmid by nonlinear regression curve fit on a plot of Relative Light Units (RLU) versus the log NB74-MeS and NB124-MeS molar concentration (Find ECanything analysis, GraphPad PRISM, version 7).

The test system of the next data set is human fibroblast cells. Particulars: cited from earlier work.

Entries after “also recorded” stand apart in the source; their conditions may differ. Bounds are passed on as bounds.

For the molecule `C[C@@H](O)C1O[C@H](O[C@@H]2C(N)C[C@@H](NC(=O)c3ccccc3)C(O)C2O[C@@H]2O[C@H](CN)C(O)C2O)C(N)C(O)[C@@H]1O` (stereo partly drawn) [NB74-Bz, 6′-(R)-Methyl-5-O-(5″-amino-5″-deoxy-β-D-ribofuranose)-2′,3-amino-1-N-benzamide paromamine], at eukaryotic ribosome, the IC50 was 755 µM. In the data set with eukaryotic ribosome (from IC50 values), the “folds less specific to the eukaryotic ribosome than NB74” value worked out at 54 folds.
Molecule `C[C@@H](O)C1O[C@H](O[C@@H]2C(N)C[C@@H](NS(=O)(=O)c3ccccc3)C(O)C2O[C@@H]2O[C@H](CN)C(O)C2O)C(N)C(O)[C@@H]1O` (stereo partly drawn) [NB74-PhS, 6′-(R)-Methyl-5-O-(5″-amino-5″-deoxy-II-D-ribofuranose)-2′,3-amino-1-N-phenylsulfonamide paromamine] came in with an IC50 on eukaryotic ribosome of 160 ± 3.6 µM. Moreover, the CC50 at 72 h in data set [1] was 176 µM.
On to `C[C@H](N)[C@H]1O[C@@H](O[C@@H]2C(O)[C@H](N)CC(N)[C@H]2O[C@H]2OC([C@@H](C)O)[C@@H](O)[C@H](O)C2N)C(O)[C@H]1O` (some centres unmarked) [NB124, reference compound], for which the CC50 at 72 h in data set [1] is 11.1 µM. Besides, the “morphology of hair cell epithelium” value in the data set on outer hair cells (15 μM, 72 hours) is reported as “almost complete”. Further, the “hair cell loss / damage” value in the data set on outer hair cells (15 μM, 72 hours, basal part of the cochlea) is 80-90%.
On eukaryotic ribosome, `CC(=O)N[C@@H]1CC(N)[C@@H](O[C@H]2OC([C@@H](C)O)[C@@H](O)C(O)C2N)C(O[C@@H]2O[C@H](CN)C(O)C2O)C1O` (stereo partly drawn) [NB74-Ac, 6′-(R)-Methyl-5-O-(5″-amino-5″-deoxy-β-D-ribofuranose)-2′,3-amino-1-N-acetamide paromamine] gave an IC50 of 92.3 ± 9.9 µM. Also, the CC50 at 72 h in data set [1] was found to be 2400 µM. For the same molecule, the “ototoxicity potential, in words” value in the data set with outer hair cells is given as “incredibly low ototoxicity potential”. For the same molecule, the CC50 in the data set on outer hair cells (concentration at 50% loss of hair cells, 72 hours incubation, read-out: Ototoxicity (Loss of outer hair cells), LC50^Coch) was found to be 2040 µM. Also, the “ototoxicity relative to parent compound” value with outer hair cells (from LC50^Coch values) is recorded as “decreased in three orders of magnitude”.
`CC(=O)N[C@@H]1CC(N)[C@@H](O[C@H]2OC([C@@H](C)O)[C@@H](O)C(O)C2N)C(O[C@@H]2O[C@H]([C@H](C)N)C(O)C2O)C1O` (stereo partly drawn) [NB124-Ac, 6′-(R)-Methyl-5-O-(5-(R)-amino-5-deoxy-β-D-ribofuranose)-2′,3-amino-1-N-acetamide paromamine]: the CC50 at 72 h in data set [1] was found to be 1600 µM. Moreover, the “morphology of hair cell epithelium” value with outer hair cells (150 μM, 72 hours) was “remained normal and indistinguishable from the control; also recorded: essentially normal morphology”. Moreover, the “ototoxicity potential, in words” value with outer hair cells is recorded as “incredibly low ototoxicity potential”.
Turning to `C[C@@H](O)C1O[C@H](O[C@@H]2C(N)C[C@@H](N)C(O)[C@H]2O[C@@H]2O[C@H](CN)[C@H](O)C2O)C(N)[C@@H](O)[C@@H]1O` (some centres unmarked) [NB74, reference compound], at eukaryotic ribosome, the IC50 came to 14.3 µM. For the same molecule, the CC50 at 72 h in data set [1] turned out to be 112 µM.
For the molecule `C[C@H](N)[C@H]1O[C@@H](OC2C(O)[C@H](NS(C)(=O)=O)CC(N)[C@H]2O[C@H]2OC([C@@H](C)O)[C@@H](O)C(O)C2N)C(O)C1O` (some centres unmarked) [NB124-MeS], the “readthrough activity, G542X mutation” value in data set [2] is “better activity”.
Regarding `C[C@@H](O)C1O[C@H](O[C@@H]2C(N)C[C@@H](NS(C)(=O)=O)C(O)C2O[C@@H]2O[C@H](CN)C(O)C2O)C(N)C(O)[C@@H]1O` (stereo partly drawn) [NB74-MeS, 6′-(R)-Methyl-5-O-(5″-amino-5″-deoxy-11-D-ribofuranose)-2′,3-amino-1-N-methanesulfonamide paromamine], the “folds better readthrough activity in comparison to NB74” value in data set [3] is listed as “about 1.5 folds”. Also, the “readthrough activity, G542X mutation” value in data set [2] is “better activity”. The IC50 against eukaryotic ribosome is 8.35 µM; in the data set with ribosomes (read-out: TI50 (the source's name)) it was more than 16 µM. Moreover, the “folds more specific to the eukaryotic ribosome than NB74” value in the data set with eukaryotic ribosome (from IC50 values) was found to be 1.7 folds. Besides, the “Fold Read-through at TI80” value in data set [4] (S466X, relative to MUT control, 0-16 μM range) was determined as 9.9 Fold. Moreover, the “% Read-through at TI80” value in data set [4] (S466X, relative to WT) is 17%. For the same molecule, in data set [4] (cell-free assay, data not shown), the “suppression of cystic fibrosis S466X nonsense mutation, in words” value is on record as “dose-response suppression”. For the same molecule, the TI80 in the data set with ribosomes was determined as 16 µM. The CC50 at 72 h in data set [1] amounted to 61.8 µM.
In the case of `CNC1C(O)C(OC2C(N)CC(N)C(OC3OC(C(C)O)C(O)C(O)C3N)C2O)OCC1(C)O` (centres unmarked) [Compound G-418], the LD50 with human fibroblast cells was 0.04 mg/mL.
